Data taken from the supplement of paper PMC11208160.

experiment: recombinant UMI read abundance after kanamycin selection (control-corrected) (log10(CPM+1)); higher = more efficient recombination; extreme values may be limits of the assay; sequences stand for … in AGTGCAGAGAAAATCGGCCAGTTTTCTCTGCCTGCAGTCCGCATGCCGTGGGACCCCTTGGGTTCTAACCTGTTGCCTAGATTTATGCAGCGGACTGCCTTTCTCCCAAAGTGATAAACCGG…AGGTTGGTTTCACT; site = the 11-nt donor
Procedure, shortened: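 Values, expressed as log10(CPM+1), derive from recombinant UMI counts converted to CPM, averaged across replicates and scaled by control-derived factors. Plating was with IPTG (0.07 mM) plus kanamycin or unselected, two replicates each. The screen pooled donor and donor-binding-loop pairs for the IS621 bridge recombinase in Escherichia coli.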
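Further: IS621 bridge recombinase in Escherichia coli cells against a fixed T5 target plasmid.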

First: CCCCTCACATGGACCGGTTTTCCCGGTAATCCGTATTTGTA (site CCCCGCACTTA)
Second: CCCCTCACATGGACCGGTTTTCCCGGTAATCCGTATTTGTA (site CCCCTCACTTA)
The “recombinant UMI read abundance (log10)” value of the first is lower: 0.0202 for the first, 1.15 for the second.

Compared with “CCCCTCGCATGGACCGGTTTTCCCGGTAATCCGTATTTGAA (site CCCCTCGCTTT)”, “CCCCTCTCATGGACCGGTTTTCCCGGTAATCCGTATTTGGG (site CCCATCTCTCC)” is lower in “recombinant UMI read abundance (log10)” value: 0.801 for the first, 0 for the second.

“CCCCTCTCATGGACCGGTTTTCCCGGTAATCCGTATTTGGG (site CCCCTCTCTCC)” and “CCCCTCTCATGGACCGGTTTTCCCGGTAATCCGTATTTGGG (site CCCGTCTCTCC)” are within 0.2 log units of each other in “recombinant UMI read abundance (log10)” value: 0.0198 for the first, 0.00587 for the second.

Compared with “CCCCTCTCATGGACCGGTTTTCCCGGTAATCCGTATTTGGG (site CCCTTCTCTCC)”, “CCCCTTACATGGACCGGTTTTCCCGGTAATCCGTATTTGGT (site CCCCTTACTAC)” is higher in “recombinant UMI read abundance (log10)” value: 0 for the first, 0.238 for the second.

Compared with “CCCGACCCATGGACCGGTTTTCCCGGTAATCCGTATTTGAG (site CCCGACCCTCT)”, “CCCGAGTCATGGACCGGTTTTCCCGGTAATCCGTATTTGCC (site CCCGAGTCTGG)” is higher in “recombinant UMI read abundance (log10)” value: 0.0182 for the first, 0.938 for the second.

“CCCGGCCCATGGACCGGTTTTCCCGGTAATCCGTATTTGCA (site CCCGGACCTTG)” and “CCCGGCCCATGGACCGGTTTTCCCGGTAATCCGTATTTGCA (site CCCGGCCCTTG)” are within 0.2 log units of each other in “recombinant UMI read abundance (log10)” value: 0.00734 for the first, 0 for the second.

“CCCGGCCCATGGACCGGTTTTCCCGGTAATCCGTATTTGCA (site CCCGGGCCTTG)” and “CCCGGCCCATGGACCGGTTTTCCCGGTAATCCGTATTTGCA (site CCCGGTCCTTG)” are within 0.2 log units of each other in “recombinant UMI read abundance (log10)” value: 0 for the first, 0.0145 for the second.

“CCCGGTTCATGGACCGGTTTTCCCGGTAATCCGTATTTGCA (site CCCGGTACTTG)” and “CCCGGTTCATGGACCGGTTTTCCCGGTAATCCGTATTTGCA (site CCCGGTCCTTG)” are the same in “recombinant UMI read abundance (log10)” value: 0 for the first, 0 for the second.

First: CCCGGTTCATGGACCGGTTTTCCCGGTAATCCGTATTTGCA (site CCCGGTGCTTG)
Second: CCCGGTTCATGGACCGGTTTTCCCGGTAATCCGTATTTGCA (site CCCGGTTCTTG)
The “recombinant UMI read abundance (log10)” value of the first is lower: 0.0148 for the first, 1.83 for the second.

Going from “CCCGTACCATGGACCGGTTTTCCCGGTAATCCGTATTTGCT (site CCCGTACCTAG)” to “CCCGTCGCATGGACCGGTTTTCCCGGTAATCCGTATTTGCC (site CCCGTCGCTGG)”, the “recombinant UMI read abundance (log10)” value rises from 0 to 1.45.

“CCCGTCTCATGGACCGGTTTTCCCGGTAATCCGTATTTGGG (site CCCATCTCTCC)” and “CCCGTCTCATGGACCGGTTTTCCCGGTAATCCGTATTTGGG (site CCCCTCTCTCC)” are within 0.2 log units of each other in “recombinant UMI read abundance (log10)” value: 0.0267 for the first, 0.0424 for the second.

“CCCGTCTCATGGACCGGTTTTCCCGGTAATCCGTATTTGGG (site CCCGTCTCTCC)” and “CCCGTCTCATGGACCGGTTTTCCCGGTAATCCGTATTTGGG (site CCCTTCTCTCC)” are within 0.2 log units of each other in “recombinant UMI read abundance (log10)” value: 0.0026 for the first, 0.018 for the second.

Compared with “CCCTAACCATGGACCGGTTTTCCCGGTAATCCGTATTTGCT (site CCCTAACCTAG)”, “CCCTACTCATGGACCGGTTTTCCCGGTAATCCGTATTTGGG (site CCCTACTCTCC)” is higher in “recombinant UMI read abundance (log10)” value: 0 for the first, 0.346 for the second.

“CCCTACTCATGGACCGGTTTTCCCGGTAATCCGTATTTGGG (site CCCTCCTCTCC)” and “CCCTACTCATGGACCGGTTTTCCCGGTAATCCGTATTTGGG (site CCCTGCTCTCC)” are within 0.2 log units of each other in “recombinant UMI read abundance (log10)” value: 0.00345 for the first, 0.0112 for the second.

“CCCTACTCATGGACCGGTTTTCCCGGTAATCCGTATTTGGG (site CCCTTCTCTCC)” and “CCCTAGCCATGGACCGGTTTTCCCGGTAATCCGTATTTGGC (site CCCTAGCCTGA)” are within 0.2 log units of each other in “recombinant UMI read abundance (log10)” value: 0.00875 for the first, 0 for the second.

“CCCTAGCCATGGACCGGTTTTCCCGGTAATCCGTATTTGGC (site CCCTAGCCTGC)” and “CCCTAGCCATGGACCGGTTTTCCCGGTAATCCGTATTTGGC (site CCCTAGCCTGG)” are the same in “recombinant UMI read abundance (log10)” value: 0 for the first, 0 for the second.

“CCCTAGCCATGGACCGGTTTTCCCGGTAATCCGTATTTGGC (site CCCTAGCCTGT)” and “CCCTATCCATGGACCGGTTTTCCCGGTAATCCGTATTTGAC (site CCCTATCCTGT)” are the same in “recombinant UMI read abundance (log10)” value: 0 for the first, 0 for the second.

Going from “CCCTATTCATGGACCGGTTTTCCCGGTAATCCGTATTTGCT (site CCCTATTCTAG)” to “CCCTCCTCATGGACCGGTTTTCCCGGTAATCCGTATTTGCC (site CACTCCTCTGG)”, the “recombinant UMI read abundance (log10)” value falls from 1.7 to 0.544.

First: CCCTCCTCATGGACCGGTTTTCCCGGTAATCCGTATTTGCC (site CCCTCCTCTGG)
Second: CCCTCCTCATGGACCGGTTTTCCCGGTAATCCGTATTTGCC (site CGCTCCTCTGG)
The “recombinant UMI read abundance (log10)” value of the first is higher: 2.25 for the first, 0 for the second.

Going from “CCCTCCTCATGGACCGGTTTTCCCGGTAATCCGTATTTGCC (site CTCTCCTCTGG)” to “CCCTCGCCATGGACCGGTTTTCCCGGTAATCCGTATTTGCC (site CCCTAGCCTGG)”, the “recombinant UMI read abundance (log10)” value falls from 0.448 to 0.

“CCCTCGCCATGGACCGGTTTTCCCGGTAATCCGTATTTGCC (site CCCTCGCCTGG)” and “CCCTCGCCATGGACCGGTTTTCCCGGTAATCCGTATTTGCC (site CCCTGGCCTGG)” are the same in “recombinant UMI read abundance (log10)” value: 0 for the first, 0 for the second.

“CCCTCGCCATGGACCGGTTTTCCCGGTAATCCGTATTTGCC (site CCCTTGCCTGG)” and “CCCTCGGCATGGACCGGTTTTCCCGGTAATCCGTATTTGCT (site CCCTCGGCTAG)” are within 0.2 log units of each other in “recombinant UMI read abundance (log10)” value: 0.011 for the first, 0.0794 for the second.

“CCCTGTTCATGGACCGGTTTTCCCGGTAATCCGTATTTGGG (site CCCTGTTCTCC)” and “CCCTTCGCATGGACCGGTTTTCCCGGTAATCCGTATTTGGG (site CCCTTCACTCC)” are within 0.2 log units of each other in “recombinant UMI read abundance (log10)” value: 0.00741 for the first, 0.0167 for the second.

“CCCTTCGCATGGACCGGTTTTCCCGGTAATCCGTATTTGGG (site CCCTTCCCTCC)” and “CCCTTCGCATGGACCGGTTTTCCCGGTAATCCGTATTTGGG (site CCCTTCGCTCC)” are within 0.2 log units of each other in “recombinant UMI read abundance (log10)” value: 0 for the first, 0.0148 for the second.

Going from “CCCTTCGCATGGACCGGTTTTCCCGGTAATCCGTATTTGGG (site CCCTTCTCTCC)” to “CCGAAAGCATGGACCGGTTTTCCCGGTAATCCGTATTTGAT (site CCAAAAGCTAT)”, the “recombinant UMI read abundance (log10)” value rises from 0.0112 to 0.501.

Going from “CCGAAAGCATGGACCGGTTTTCCCGGTAATCCGTATTTGAT (site CCCAAAGCTAT)” to “CCGAAAGCATGGACCGGTTTTCCCGGTAATCCGTATTTGAT (site CCGAAAGCTAT)”, the “recombinant UMI read abundance (log10)” value rises from 0 to 0.975.

“CCGAAAGCATGGACCGGTTTTCCCGGTAATCCGTATTTGAT (site CCTAAAGCTAT)” and “CCGAAGACATGGACCGGTTTTCCCGGTAATCCGTATTTGGC (site CCGAAGACTGC)” are within 0.2 log units of each other in “recombinant UMI read abundance (log10)” value: 0.0026 for the first, 0 for the second.

“CCGAATCCATGGACCGGTTTTCCCGGTAATCCGTATTTGTA (site CCGAATCCTTA)” and “CCGAATCCATGGACCGGTTTTCCCGGTAATCCGTATTTGTA (site CGGAATCCTAA)” are within 0.2 log units of each other in “recombinant UMI read abundance (log10)” value: 0 for the first, 0.00532 for the second.

First: CCGAATGCATGGACCGGTTTTCCCGGTAATCCGTATTTGAT (site CCGAATGCTAT)
Second: CCGAATTCATGGACCGGTTTTCCCGGTAATCCGTATTTGTT (site CCGAATTCTAA)
The “recombinant UMI read abundance (log10)” value of the first is higher: 0.919 for the first, 0 for the second.

Going from “CCGAATTCATGGACCGGTTTTCCCGGTAATCCGTATTTGTT (site CGGAATCCTAA)” to “CCGAGCGCATGGACCGGTTTTCCCGGTAATCCGTATTTGAA (site CCGAGCGCTTT)”, the “recombinant UMI read abundance (log10)” value rises from 0.00782 to 0.998.

Compared with “CCGAGCTCATGGACCGGTTTTCCCGGTAATCCGTATTTGTA (site CCGAGCTCTTA)”, “CCGAGGCCATGGACCGGTTTTCCCGGTAATCCGTATTTGGC (site CCGAGGCCTGC)” is lower in “recombinant UMI read abundance (log10)” value: 0.496 for the first, 0 for the second.

“CCGATAGCATGGACCGGTTTTCCCGGTAATCCGTATTTGTG (site CCGATAGCTCA)” and “CCGATAGCATGGACCGGTTTTCCCGGTAATCCGTATTTGTG (site CCGCTAGCTCA)” are within 0.2 log units of each other in “recombinant UMI read abundance (log10)” value: 0.0444 for the first, 0.0063 for the second.

“CCGATAGCATGGACCGGTTTTCCCGGTAATCCGTATTTGTG (site CCGGTAGCTCA)” and “CCGATAGCATGGACCGGTTTTCCCGGTAATCCGTATTTGTG (site CCGTTAGCTCA)” are within 0.2 log units of each other in “recombinant UMI read abundance (log10)” value: 0.00966 for the first, 0.0148 for the second.

First: CCGATATCATGGACCGGTTTTCCCGGTAATCCGTATTTGGC (site CCGATATCTGC)
Second: CCGATCTCATGGACCGGTTTTCCCGGTAATCCGTATTTGAG (site CCGATCTCTCT)
The “recombinant UMI read abundance (log10)” value of the first is higher: 0.68 for the first, 0.00289 for the second.
